Data from US9376506B2, “Method for producing sialic-acid-containing sugar chain” (GLYTECH, INC., priority 2011, dated 2016).
Where two headings read alike, the source gives them in different places.

Columns and labels:
[1] = molecular target: T1, ST6Gal-I (Homo sapiens, UniProt P15907); conditions: 0.25 mM CMP, cited from earlier work
T1 sequence (P15907 1-406): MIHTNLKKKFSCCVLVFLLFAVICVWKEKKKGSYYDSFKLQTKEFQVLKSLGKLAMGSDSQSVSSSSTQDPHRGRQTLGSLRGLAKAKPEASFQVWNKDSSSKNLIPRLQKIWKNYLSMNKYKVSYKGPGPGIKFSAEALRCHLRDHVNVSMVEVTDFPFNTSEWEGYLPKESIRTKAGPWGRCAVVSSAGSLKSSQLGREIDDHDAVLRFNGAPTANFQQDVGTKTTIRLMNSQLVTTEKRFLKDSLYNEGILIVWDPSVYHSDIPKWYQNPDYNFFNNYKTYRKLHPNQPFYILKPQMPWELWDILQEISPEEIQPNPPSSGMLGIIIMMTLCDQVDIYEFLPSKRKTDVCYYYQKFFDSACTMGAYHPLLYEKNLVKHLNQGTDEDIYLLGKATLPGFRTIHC

[2] = Stability of CMP-Neu5Ac (CMP formation, HPLC); format: physicochemical; conditions: 5 mM CMP-Neu5Ac/0.1 M MOPS (pH 7.3), after 24 hours
Experimental: In order to confirm whether CMP was formed by the degradation of the substrate donor CMP-Neu5Ac, 5 mM CMP-Neu5Ac/0.1 M MOPS (pH 7.3) was incubated at 25° C., 30° C., 33° C., or 37° C., and the amount of CMP formed was measured. The measurement was performed by HPLC using a column TSKgel SuperQ-5PW (7.5×75 mm; Tosoh Corp.) and 50 mM KPi (pH 8.0) as a solvent. A UV detector (detection wavelength: 254 nm) was used for the detection. The degree of CMP formation was indicated by [Peak area of CMP]/[Peak area of CMP+Peak area of CMP-Neu5Ac]×100(%). After 24 hours, 45% CMP was formed at 37° C., whereas 21% CMP was formed at 30° C., which was about half of that formed at 37° C.

| CMP formed, [Peak area of CMP]/[Peak area of CMP+Peak area of CMP-Neu5Ac]×100 ([2]; 30° C.) [%] | CMP formed, [Peak area of CMP]/[Peak area of CMP+Peak area of CMP-Neu5Ac]×100 ([2]; 37° C.) [%] | SMILES | product inhibition of ST6Gal-I by CMP ([1]; Non Patent Literature 5) [%] | product inhibition of ST6Gal-I by CMP ([1]; Non Patent Literature 6) [%] |
| --- | --- | --- | --- | --- |
| – | – | Nc1ccn([C@@H]2O[C@H](COP(=O)(O)O)[C@@H](O)[C@H]2O)c(=O)n1 [CMP, cytidine monophosphate] | 49 | 71 |
| 21 | 45 | CC(=O)N[C@H]1[C@H]([C@H](O)[C@H](O)CO)O[C@](OP(=O)(O)OC[C@H]2O[C@@H](n3ccc(N)nc3=O)[C@H](O)[C@@H]2O)(C(=O)O)C[C@@H]1O [CMP-Neu5Ac, CMP-N-acetylneuraminic acid] | – | – |
